Here are results for two compounds from the NIST ThermoML archive (doi:10.1016/j.jct.2011.02.021).

This data set can be described thus: molar enthalpy of vaporization or sublimation. The conditions noted are these: 298.15 K; Crystal; drop microcalorimetry.

± gives the expanded uncertainty stated by the source.

`Cc1cc(=O)cc(C)o1` [2,6-dimethyl-γ-pyrone]: the molar enthalpy was determined as 20.7 ± 0.717 kcal/mol.

Consider `CCc1occc(=O)c1O` [2-ethyl-3-hydroxy-4H-pyran-4-one], for which the molar enthalpy was found to be 21.8 ± 0.956 kcal/mol.
